“Also recorded” adds a separate entry of the source.
Key:
Assay type in all cases: cell-based, human
HREC = assay: Cellular toxicity in LE-treated HREC; conditions: highest concentration of LE tested (50 μM)
occludin = assay: Western blot analysis of occludin in cell lysates; conditions: LE 0, 10 & 50 μM; daily administration for 3 days necessary to maintain effect
Protocol: Cells were treated with LE (0, 10 & 50 μM) for either 3 days or LE (0, 10 & 50 μM) was replenished everyday for 3 days. Cells were lysed and protein levels determined/adjusted (see above). SDS PAGE was performed on cell lysates and then separated proteins were transferred on to a nitrocellulose (NC) paper (Invitrogen). NC paper was blocked with 3% non-fat milk in phosphate buffered saline (PBS) for 1 hour and then probed with specific anti bodies to occludin (Rabbit anti-occludin polyclonal and monoclonal antibodies, Zymed); Goat anti-occludin (Santa Cruz). NC paper was then incubated with secondary horseradish peroxidase conjugated antibody for 1 hour and the bands were visualized using DAB (3,3′-diaminobenzidine) (Vector Laboratories) or cheminluminescence (SuperSignal West Dura, Pierce).

ZO-1 = assay: Immunohistochemistry of tight junction protein ZO-1 in VEGF-treated HREC; conditions: LE 10 & 50 μM for 1 hour, then VEGF 20 ng/ml for 1 hour, listed as LE
Protocol: Human retina endothelial cells were seeded onto an 8-well glass chamber and allowed to become 80-90% confluent. Cells were treated with or without LE for 1 hour and then treated with VEGF (20 ng/ml) for 1 hour. HREC were immediately fixed and stained with specific antibodies to occludin and zonula occluden-1 (Zymed). FITC-conjugated secondary antibodies (R&D Systems) were used to visualize tight junction distribution/integrity.

sVCAM-1 = assay: ELISA for sVCAM-1 in supernatants of LE-treated HREC; conditions: HREC with or without LPS activation; LE 0, 10, 25 & 50 μM, 3 days; p≦0.05 (FIG. 2A)
Protocol: (§1) HREC were treated with LE (10, 25 and 50 μM) for 3 days. Supernatants were removed and microcentrifuge (Beckman Microfuge R) 1000 RPM for 10 min (4° C. after which they were stored at −70° C. until needed. ELISA kits (R&D systems) for human vascular endothelial growth factor (VEGF), soluble intracellular adhesion molecule (sICAM-1) and soluble vascular cell adhesion molecule (sVCAM-1) were used according to the manufacturer's instructions.

sICAM-1 = assay: ELISA for sICAM-1 in supernatants of LE-treated HREC; conditions: HREC with or without LPS activation; LE 0, 10, 25 & 50 μM, 3 days; p≦0.05 (FIG. 2B)
Protocol: as §1

VEGF = assay: ELISA for VEGF in supernatants of LE-treated HREC; conditions: LE 0, 10, 25 & 50 μM, 3 days
Protocol: as §1

CCOC(=O)O[C@]1(C(=O)OCCl)CC[C@H]2[C@@H]3CCC4=CC(=O)C=C[C@]4(C)[C@H]3[C@@H](O)C[C@@]21C [Loteprednol etabonate]
cellular toxicity (HREC): no apparent cellular toxicity | total content of occludin (occludin): increased | effect on VEGF-induced disruption/redistribution of ZO-1 (tight junction) (ZO-1): reversed the effect of VEGF tight junction disruption; also recorded: inhibited the effect of VEGF-induced disruption of ZO-1 | expression of sVCAM-1 (sVCAM-1): significantly down regulated | expression of sICAM-1 (sICAM-1): significantly down regulated | expression of VEGF (VEGF; HREC with LPS activation, p≦0.01 (FIG. 1A)): significantly down regulated | expression of VEGF (VEGF; HREC without LPS activation, p≦0.01 (FIG. 1B)): significantly down regulated

Reference: patent publication US20070093461A1, “Effect of Loteprednol etabonate on vascular dysfunction” (Bausch & Lomb Incorporated, priority 2005, published 2007)
